Measurements taken from patent publication US6649654B1, “Methods for identifying and using IKK inhibitors” (The Regents of the University of California, priority 1999, dated 2003).
“Also recorded” adds a separate entry of the source.

What was measured:
[1] = tested on: NF-κB; test: NF-κB activation by EMSA in Jurkat cells stimulated with TNFα or TPA; assay type: cell-based, human
Procedure: (§1) Cells used in the experiments described herein were cultured in either RPMI 1640 (Jurkat cells) or DMEM (HeLa and COS cells), supplemented with 10% FBS and antibiotics. Cells were stimulated with either 25 ng/ml TPA, 20 ng/ml recombinant TNFα, or 10 ng/ml interleukin 1β (Sigma). PGA1, 15dPGJ2, T×B2, LTB4, AA and other PGs (Cayman) dissolved in ethanol were used as well, as known in the art (See e.g., Rossi et al., 94:746-750 [1997]). Controls received equal amounts of ethanol. Transfections were performed using Lipofectamine Plus (GIBCO) for HeLa and COS cells and DEAE-dextran (Sigma) for Jurkat cells. Xpress-tagged NIK, Xpress-tagged MEKK1, HA-tagged IKKα, and HA-tagged IKKβ were also used (See e.g., Zandi et al., Science 281:1360-1363 [1998]; and Delhase et al., Science 284:309-313 [1999]). COX2 and cPLA2 expression vectors were obtained from Dr. L. Feng (See also, Hirose et al., J. Am. Soc. Nephrol., 9:408-416 [1998]). PGD synthase was cloned from HT29 colon carcinoma cell line cDNA by PCR and subcloned into a pCDNA3 vector. Cells were lysed in buffer B (50 mM Tris-HCl, pH 7.5, 400 mM NaCl, 1 mM EDTA, 1 mM EGTA, 1% Triton, 0.5% NP-40, 10% glycerol, and supplemented with 20 mM β-glycerophosphate, 10 mM PNPP, 500 mM Na3VO4, 1 mM PMSF, 20 μg/ml aprotinin, 2.5 μg/ml leupeptin, 8.3 μg/ml bestatin, 1.7 μg/ml pepstatin, and 2 mM DTT). […]

[2] = biological target: T1, IKKα (Homo sapiens, UniProt O14920+O15111); test: NIK-induced HA-tagged IKKα associated kinase activity in COS cells; assay type: cell-based; conditions: PGA1 added immediately after or 18 hours after transfection
T1 construct: expressed in transfected cells; host or cells: COS
Procedure: as §1, with “vector.” for “vector. Cells were lysed in buffer B (50 mM Tris-HCl, pH 7.5, 400 mM NaCl, 1 mM EDTA, 1 mM EGTA, 1% Triton, 0.5% NP-40, 10% glycerol, and supplemented with 20 mM β-glycerophosphate, 10 mM PNPP, 500 mM Na3VO4, 1 mM PMSF, 20 μg/ml aprotinin, 2.5 μg/ml leupeptin, 8.3 μg/ml bestatin, 1.7 μg/ml pepstatin, and 2 mM DTT).”
(§2) Cell lysates were incubated with anti-IKKα (Pharmingen), anti-HA (12CA5; Pharmingen), anti-JNK1 (333.8; Pharmingen), or anti-p38 (New England Biolabs) for 2 hours. […] Endogenous IKK, HA-tagged IKKα, endogenous JNK1, and p38 activities were determined with GST-1κBα(1-54), GST-c-Jun(1-79), and GST-ATF2 as substrates.

[3] = biological target: T2, IKKβ (Homo sapiens, UniProt O14920); test: HA-tagged IKKβ overexpressed in COS cells: kinase activity and expression; assay type: cell-based
T2 sequence (O14920 1-756): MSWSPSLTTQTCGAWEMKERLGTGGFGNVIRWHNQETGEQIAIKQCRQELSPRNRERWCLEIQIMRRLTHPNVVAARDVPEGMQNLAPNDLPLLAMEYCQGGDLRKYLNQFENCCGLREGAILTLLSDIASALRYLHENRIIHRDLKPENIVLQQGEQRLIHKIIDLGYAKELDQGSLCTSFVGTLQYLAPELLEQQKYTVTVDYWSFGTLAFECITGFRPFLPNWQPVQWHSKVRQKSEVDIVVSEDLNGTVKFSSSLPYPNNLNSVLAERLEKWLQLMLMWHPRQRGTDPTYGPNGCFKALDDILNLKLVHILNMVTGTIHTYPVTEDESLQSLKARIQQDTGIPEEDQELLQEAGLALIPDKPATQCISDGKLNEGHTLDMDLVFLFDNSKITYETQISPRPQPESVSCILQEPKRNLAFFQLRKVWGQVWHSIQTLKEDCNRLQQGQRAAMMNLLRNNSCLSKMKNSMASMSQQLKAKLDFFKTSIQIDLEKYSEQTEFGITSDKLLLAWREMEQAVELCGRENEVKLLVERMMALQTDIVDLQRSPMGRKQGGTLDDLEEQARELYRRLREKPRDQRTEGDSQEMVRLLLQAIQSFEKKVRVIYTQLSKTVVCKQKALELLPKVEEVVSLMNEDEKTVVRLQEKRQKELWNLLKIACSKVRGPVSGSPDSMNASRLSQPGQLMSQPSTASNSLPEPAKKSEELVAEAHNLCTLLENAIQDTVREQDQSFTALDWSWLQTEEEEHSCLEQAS
Procedure: as §1, with “vector.” for “vector. Cells were lysed in buffer B (50 mM Tris-HCl, pH 7.5, 400 mM NaCl, 1 mM EDTA, 1 mM EGTA, 1% Triton, 0.5% NP-40, 10% glycerol, and supplemented with 20 mM β-glycerophosphate, 10 mM PNPP, 500 mM Na3VO4, 1 mM PMSF, 20 μg/ml aprotinin, 2.5 μg/ml leupeptin, 8.3 μg/ml bestatin, 1.7 μg/ml pepstatin, and 2 mM DTT).”
as §2

[4] = tested on: NF-κB; test: NF-κB activation by TPA in human cells expressing very low levels of PPAR-γ; assay type: cell-based; conditions: human cells with very low PPAR-γ, data not shown
[5] = tested on: activated monocytes; conditions: cited from earlier work
[6] = biological target: JNK (Homo sapiens, UniProt P45983); test: JNK activity in HeLa cells; assay type: cell-based; parameters: endogenous in cells; conditions: even in the absence of TNFα
Procedure: as §1, with “vector.” for “vector. Cells were lysed in buffer B (50 mM Tris-HCl, pH 7.5, 400 mM NaCl, 1 mM EDTA, 1 mM EGTA, 1% Triton, 0.5% NP-40, 10% glycerol, and supplemented with 20 mM β-glycerophosphate, 10 mM PNPP, 500 mM Na3VO4, 1 mM PMSF, 20 μg/ml aprotinin, 2.5 μg/ml leupeptin, 8.3 μg/ml bestatin, 1.7 μg/ml pepstatin, and 2 mM DTT).”
as §2

T1 sequence (O15111 whole entry, one chain of several): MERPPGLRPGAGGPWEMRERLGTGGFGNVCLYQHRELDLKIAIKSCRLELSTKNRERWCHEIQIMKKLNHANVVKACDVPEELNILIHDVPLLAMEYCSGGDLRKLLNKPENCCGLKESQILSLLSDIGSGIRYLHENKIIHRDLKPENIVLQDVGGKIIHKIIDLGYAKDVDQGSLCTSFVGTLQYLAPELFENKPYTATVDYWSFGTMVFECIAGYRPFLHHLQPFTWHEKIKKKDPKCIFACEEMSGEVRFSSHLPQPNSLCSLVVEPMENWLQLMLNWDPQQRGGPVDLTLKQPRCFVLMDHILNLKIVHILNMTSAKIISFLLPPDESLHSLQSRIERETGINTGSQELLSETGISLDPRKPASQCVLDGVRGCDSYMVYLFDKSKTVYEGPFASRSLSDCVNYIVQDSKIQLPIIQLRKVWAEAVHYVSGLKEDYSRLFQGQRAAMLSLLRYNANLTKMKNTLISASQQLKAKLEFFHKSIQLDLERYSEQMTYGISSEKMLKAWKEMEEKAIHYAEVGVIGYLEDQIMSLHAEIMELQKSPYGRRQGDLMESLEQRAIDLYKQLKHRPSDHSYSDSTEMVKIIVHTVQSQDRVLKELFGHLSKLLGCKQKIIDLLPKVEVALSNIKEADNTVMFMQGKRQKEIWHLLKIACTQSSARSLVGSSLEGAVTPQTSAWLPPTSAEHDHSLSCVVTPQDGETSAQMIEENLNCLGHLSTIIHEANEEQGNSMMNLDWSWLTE
T1 sequence (Q9Y6K9 whole entry partner, one chain of several): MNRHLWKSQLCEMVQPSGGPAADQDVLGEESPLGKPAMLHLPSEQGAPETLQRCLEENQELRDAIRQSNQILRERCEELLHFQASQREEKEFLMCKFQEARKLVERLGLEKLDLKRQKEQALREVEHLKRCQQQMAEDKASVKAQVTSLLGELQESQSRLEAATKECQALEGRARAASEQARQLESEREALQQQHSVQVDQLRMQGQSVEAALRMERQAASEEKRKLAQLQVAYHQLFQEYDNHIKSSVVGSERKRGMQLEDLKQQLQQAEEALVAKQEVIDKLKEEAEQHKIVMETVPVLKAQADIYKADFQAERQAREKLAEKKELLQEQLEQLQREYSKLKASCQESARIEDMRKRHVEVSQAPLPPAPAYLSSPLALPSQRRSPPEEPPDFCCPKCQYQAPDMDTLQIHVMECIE
JNK, sequence (P45983 whole entry): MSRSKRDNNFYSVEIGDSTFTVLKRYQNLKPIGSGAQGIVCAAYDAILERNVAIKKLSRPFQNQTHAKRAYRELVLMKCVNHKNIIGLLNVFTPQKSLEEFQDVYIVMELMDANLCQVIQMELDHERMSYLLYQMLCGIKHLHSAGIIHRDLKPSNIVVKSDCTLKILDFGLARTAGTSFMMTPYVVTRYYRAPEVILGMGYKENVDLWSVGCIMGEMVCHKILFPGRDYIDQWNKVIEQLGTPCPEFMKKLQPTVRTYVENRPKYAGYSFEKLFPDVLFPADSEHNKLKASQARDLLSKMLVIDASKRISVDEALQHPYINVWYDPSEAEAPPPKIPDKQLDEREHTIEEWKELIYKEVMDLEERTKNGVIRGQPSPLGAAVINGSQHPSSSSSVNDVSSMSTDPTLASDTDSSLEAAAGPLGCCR

| SMILES | IC50 ([1]; Homo sapiens, read-out: half-maximal inhibitory (IC50) concentration towards NF-κB) | effect on NF-κB activation ([1]; TNFα or TPA) | effect on NIK-induced IKK activity (HA-IKKα) [2] | effect on IKKβ expression (immunoblotting) ([3]; COS cells overexpressing HA-tagged IKKβ) | effect on kinase activity of overexpressed HA-tagged IKKβ ([3]; COS cells, PGA1 15 or 30 μM, FIG. 2C) | inhibition of NF-κB activation by TPA [4] | production of pro-inflammatory cytokines [5] | effect on JNK activity [6] |
| --- | --- | --- | --- | --- | --- | --- | --- | --- |
| CCCCC[C@H](O)/C=C/[C@H]1C=CC(=O)C1CCCCCCC(=O)O (some centres unmarked) [PGA1, prostaglandin A1] | 12 µM | prevented | inhibited | did not affect | strongly inhibited; also recorded: inhibits | – | – | – |
| CCCCC/C=C/C=C1/C(=O)C=C[C@@H]1C/C=C\CCCC(=O)O [15dPGJ2, 15-deoxy-Δ^12-14-PGJ2] | – | – | – | – | – | potent inhibitor | inhibits | stimulated |
